Reference: US10640495B2, “Heterocycle derivatives having TrkA inhibitory activity” (Shionogi & Co., Ltd., priority 2015, dated 2020)
Where two headings read alike, the source gives them in different places.

Molecular target: human TrkA (Homo sapiens (Human), UniProt P04629)
Assay: Human TrkA inhibition assay (Test Example 2)
Type: biochemical
Outline: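 Mobility-shift readout of phosphorylated versus unphosphorylated fluorescent peptide gave conversion ratio, normalized to DMSO and no-enzyme wells; IC50 by logistic fit of 10- or 15-point 3-fold dilutions. Conditions: 1 nmol/L enzyme, 15 min compound preincubation, then 500 μmol/L ATP plus 1.5 μmol/L peptide, 120 min, 37 °C.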

[1] = human TrkA 1 nmol/L, ATP 500 μmol/L, 120 min at 37° C., read-out: IC50 values (TrkA phosphorylation inhibition)
[2] = Table 155, human TrkA inhibition, read-out: IC50
[3] = Table 157, human TrkA inhibition, read-out: IC50
[4] = Table 153, human TrkA inhibition, read-out: IC50
[5] = Table 154, human TrkA inhibition, read-out: IC50
[6] = Table 156, human TrkA inhibition, read-out: IC50

human TrkA, sequence (P04629 440-796): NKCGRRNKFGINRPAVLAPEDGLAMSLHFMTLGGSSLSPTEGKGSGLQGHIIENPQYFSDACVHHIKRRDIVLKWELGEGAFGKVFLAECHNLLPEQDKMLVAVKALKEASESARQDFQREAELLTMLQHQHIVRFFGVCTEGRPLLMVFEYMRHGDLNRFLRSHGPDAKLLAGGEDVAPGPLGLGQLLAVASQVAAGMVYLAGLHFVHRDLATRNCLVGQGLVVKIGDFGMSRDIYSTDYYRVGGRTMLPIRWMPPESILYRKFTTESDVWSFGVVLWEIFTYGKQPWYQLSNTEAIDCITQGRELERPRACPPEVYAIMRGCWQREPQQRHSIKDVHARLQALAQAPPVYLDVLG

COCCN1C[C@@H](NC(=O)Nc2c(C)c(-c3cnc4c(c3)[nH]c(=O)n4C)nn2-c2ccccc2)[C@H](c2cnc(F)c(F)c2)O1 [Compound I-258]
IC50 [1]: 0.48 nM

COCCN1C[C@@H](NC(=O)Nc2c(C)c(-c3cnc(N4CC(O)C4)nc3)nn2-c2ccccc2)[C@H](c2cc(F)nc(F)c2)O1 (racemic) [Compound I-321]
IC50 [2]: < 100 nM

COCCN1C[C@@H](NC(=O)Nc2c(C)c(-c3cc(C(=O)NC(C)(C)C(F)(F)F)c(=O)n(C)c3)nn2-c2ccccc2)[C@H](c2ccnc(F)c2)O1 (racemic) [Compound I-390]
IC50 [2]: < 100 nM

CNC(=O)COc1nn(-c2ccccc2)c(NC(=O)N[C@@H]2CN(CCOC)O[C@H]2c2ccnc(F)c2)c1C (racemic) [Compound I-634]
IC50 [3]: < 100 nM

COCCN1C[C@@H](NC(=O)Nc2c(C)c(-c3cnc4c(cnn4C)c3)nn2-c2ccccc2)[C@H](c2ccc(F)c(F)c2)O1 [Compound I-473]
IC50 [2]: < 100 nM

COCC[C@@H]1O[C@@H](NC(=O)Nc2c(C)c(-c3cnn(C)c3)nn2-c2ccccc2)[C@H](c2ccccc2)O1 (racemic) [Compound I-5]
IC50 (Table 152, human TrkA inhibition, read-out: IC50_nM): < 100 nM

COCCN1C[C@@H](NC(=O)Nc2c(C)c(C3=CCN(C(C)=O)CC3)nn2-c2ccccc2)[C@H](c2cnc(F)c(F)c2)O1 (racemic) [Compound I-49]
IC50 [4]: < 100 nM

COCCN1C[C@@H](NC(=O)Nc2c(C)c(-c3cnc4c(c3)nc(C#N)n4C)nn2-c2ccccc2)[C@H](c2ccc(F)c(F)c2)O1 [Compound I-222]
IC50 [5]: < 100 nM

CCN1C[C@@H](NC(=O)Nc2c(C)c(-c3cnc(OC)c(C(=O)NC)c3)nn2-c2ccccc2)[C@H](c2ccc(F)cc2)O1 (racemic) [Compound I-570]
IC50 [6]: < 100 nM

COCCN1C[C@@H](NC(=O)Nc2c(C)c(-c3cnn(C)c3)nn2-c2ccccc2)[C@H](c2cnc(F)c(F)c2)O1 (racemic) [Compound I-52]
IC50 [4]: < 100 nM

COCCN1C[C@@H](NC(=O)Nc2c(C)c(-c3ccnc(C(=O)OC)c3)nn2-c2ccccc2)[C@H](c2ccc(F)c(F)c2)O1 (racemic) [Compound I-189]
IC50 [5]: < 100 nM

COCCN1C[C@@H](NC(=O)Nc2c(C)c(-c3cnc(COC)nc3)nn2-c2ccccc2)[C@H](c2ccnc(F)c2)O1 (racemic) [Compound I-444]
IC50 [2]: < 100 nM

COCCN1C[C@@H](NC(=O)Nc2c(C)c(-c3ccc4nc(C(N)=O)cn4c3)nn2-c2ccccc2)[C@H](c2cnc(F)c(F)c2)O1 (racemic) [Compound I-309]
IC50 [1]: 2 nM

COCCN1C[C@@H](NC(=O)Nc2c(C)c(-c3cnc(N4CC[C@H](OC)C4)nc3)nn2-c2ccccc2)[C@H](c2ccnc(F)c2)O1 [Compound I-584]
IC50 [3]: < 100 nM

COCCN1C[C@@H](NC(=O)Nc2c(C)c(-c3cccc(N=S(C)(C)=O)c3)nn2-c2ccccc2)[C@H](c2ccc(F)c(F)c2)O1 (racemic) [Compound I-89]
IC50 [4]: < 100 nM

COCCN1C[C@@H](NC(=O)Nc2c(C)c(N3CCN(C)C(=O)C3)nn2-c2ccccc2)[C@H](c2ccc(F)cc2)O1 [Compound I-345]
IC50 [2]: < 100 nM

COCCN1C[C@@H](NC(=O)Nc2c(C)c(-c3ccnc(C(=O)NO)c3)nn2-c2ccccc2)[C@H](c2ccnc(F)c2)O1 (racemic) [Compound I-230]
IC50 [5]: < 100 nM

CCNC(=O)c1cc(-c2nn(-c3ccccc3)c(NC(=O)N[C@@H]3CN(CCOC)O[C@H]3c3ccnc(F)c3)c2C)cnc1OC (racemic) [Compound I-110]
IC50 [4]: < 100 nM

CCN1C[C@H](NC(=O)Nc2c(C)c(OCC3CCN(C)CC3)nn2-c2ccccc2)[C@@H](c2ccc(F)c(F)c2)O1 [Compound I-535]
IC50 [6]: > 1000 nM

COCCN1C[C@@H](NC(=O)Nc2c(C)c(-c3ccc(C(=O)OC)nc3)nn2-c2ccccc2)[C@H](c2ccc(F)c(F)c2)O1 (racemic) [Compound I-199]
IC50 [5]: < 100 nM

COCCN1C[C@@H](NC(=O)Nc2c(C)c(-c3cnc4c(cnn4C)c3)nn2-c2ccccc2)[C@H](c2cnc(F)c(F)c2)O1 [Compound I-417]
IC50 [2]: < 100 nM

COCCN1C[C@@H](NC(=O)Nc2c(C)c(OCCN(C)C)nn2-c2ccccc2)[C@H](c2ccc(F)c(F)c2)O1 [Compound I-572]
IC50 [6]: < 100 nM

COCCN1C[C@@H](NC(=O)Nc2c(C)c(-c3ccc(N=S(C)(C)=O)cc3)nn2-c2ccccc2)[C@H](c2ccc(F)c(F)c2)O1 [Compound I-227]
IC50 [5]: < 100 nM

COCCN1C[C@@H](NC(=O)Nc2c(C)c(-c3cnc4nn(CC(F)(F)F)cc4c3)nn2-c2ccccc2)[C@H](c2ccnc(F)c2)O1 (racemic) [Compound I-243]
IC50 [5]: < 100 nM

COCCN1C[C@@H](c2ccnc(F)c2)[C@H](NC(=O)Nc2c(C)c(-c3cnn(C)c3)nn2-c2ccccc2)O1 (racemic) [Compound I-136]
IC50 [1]: 30 nM

COc1ncc(-c2nn(-c3ccccc3)c(NC(=O)N[C@@H]3CN(CCC(F)(F)F)O[C@H]3c3ccc(F)c(F)c3)c2C)cn1 (racemic) [Compound I-621]
IC50 [3]: > 1000 nM

COCCN1C[C@@H](NC(=O)Nc2c(C)c(-c3ccc(OC)nc3)nn2-c2ccccc2)[C@H](c2ccnc(F)c2)O1 (racemic) [Compound I-323]
IC50 [2]: < 100 nM

COCCN1C[C@@H](NC(=O)Nc2c(C)c(-c3cnc4c(c3)c(CO)nn4C)nn2-c2ccccc2)[C@H](c2cnc(F)c(F)c2)O1 (racemic) [Compound I-84]
IC50 [4]: < 100 nM

COCCN1C[C@@H](NC(=O)Nc2c(C)c(-c3cnnc(OC)c3)nn2-c2ccccc2)[C@H](c2ccnc(F)c2)O1 (racemic) [Compound I-515]
IC50 [6]: < 100 nM

COCCN1C[C@@H](NC(=O)Nc2c(C)c(-c3cnc(N(C)C)nc3)nn2-c2ccccc2)[C@H](c2cnc(F)c(F)c2)O1 [Compound I-133]
IC50 [4]: < 100 nM

COCCN1C[C@@H](NC(=O)Nc2c(C)c(-c3cnc4nc(C)oc4c3)nn2-c2ccccc2)[C@H](c2ccnc(F)c2)O1 (racemic) [Compound I-616]
IC50 [3]: < 100 nM

COCCN1C[C@@H](NC(=O)Nc2c(C)c(-c3cnc4c(c3)N(C(C)=O)CCO4)nn2-c2ccccc2)[C@H](c2ccnc(F)c2)O1 (racemic) [Compound I-341]
IC50 [2]: < 100 nM

COCCN1C[C@@H](NC(=O)Nc2c(C)c(-c3cnc(OC)c(OC)c3)nn2-c2ccccc2)[C@H](c2ccnc(F)c2)O1 (racemic) [Compound I-366]
IC50 [2]: < 100 nM

CCN1C[C@@H](NC(=O)Nc2c(C)c(OCC(=O)NC3CC3)nn2-c2ccccc2)[C@H](c2ccc(F)c(F)c2)O1 (racemic) [Compound I-648]
IC50 [3]: < 100 nM

COCCN1C[C@@H](NC(=O)Nc2c(C)c(-c3cnc(N4CC(O)C4)nc3)nn2-c2ccccc2)[C@H](c2ccnc(F)c2)O1 (racemic) [Compound I-144]
IC50 [4]: < 100 nM

COCCN1C[C@@H](NC(=O)Nc2c(C)c(-c3cnc4c(c3)c(C)nn4C)nn2-c2ccccc2)[C@H](c2ccnc(F)c2)O1 (racemic) [Compound I-114]
IC50 [4]: < 100 nM

COCCN1C[C@@H](NC(=O)Nc2c(C)c(-c3cnn(C)c3)nn2-c2cccc(F)c2)[C@H](c2ccc(F)c(F)c2)O1 [Compound I-510]
IC50 [2]: < 100 nM

COCCN1C[C@@H](NC(=O)Nc2c(C)c(-c3cnc4c(c3)nc(C(N)=O)n4C)nn2-c2ccccc2)[C@H](c2ccc(F)c(F)c2)O1 [Compound I-221]
IC50 [5]: < 100 nM

COCCN1C[C@@H](NC(=O)Nc2c(C)c(-c3ccc(OC)nc3)nn2-c2ccccc2)[C@H](c2ccc(F)c(F)c2)O1 [Compound I-516]
IC50 [6]: < 100 nM

COCCC1C[C@@H](NC(=O)Nc2c(C)c(-c3cnc(COC(=O)C(C)(C)C)nc3)nn2-c2ccccc2)[C@H](c2ccccc2)O1 (stereo partly shown) [Compound I-294]
IC50 [5]: < 100 nM
